From US20190330226A1, “POSITIVE ALLOSTERIC MODULATORS OF THE MUSCARINIC ACETYLCHOLINE RECEPTOR M1” (Vanderbilt University, priority 2018, published 2019)

Molecular target: T1, human mAChR M1 (Homo sapiens, UniProt P11229)
T1 construct: host or cells: CHO-K1 (ATCC), stably transfected using Lipofectamine 2000
T1 sequence (P11229 1-460): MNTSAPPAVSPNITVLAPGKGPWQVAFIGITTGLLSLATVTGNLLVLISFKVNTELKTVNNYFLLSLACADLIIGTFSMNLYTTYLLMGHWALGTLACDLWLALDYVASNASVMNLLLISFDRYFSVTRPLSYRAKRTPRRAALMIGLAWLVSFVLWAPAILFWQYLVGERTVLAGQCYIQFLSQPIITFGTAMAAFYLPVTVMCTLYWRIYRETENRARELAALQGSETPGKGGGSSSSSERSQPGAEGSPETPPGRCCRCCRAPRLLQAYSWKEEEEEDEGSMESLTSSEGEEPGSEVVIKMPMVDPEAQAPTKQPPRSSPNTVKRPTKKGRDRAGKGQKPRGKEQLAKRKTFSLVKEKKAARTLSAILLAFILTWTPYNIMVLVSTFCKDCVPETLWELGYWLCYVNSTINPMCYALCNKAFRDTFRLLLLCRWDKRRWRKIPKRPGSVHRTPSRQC
Assay: mAChR M1 cell-based functional assay (calcium mobilization, Fluo-4, FDSS)
Settings: CHO-K1 cells stably expressing hM1, calcium flux; for Emax: PAM mode with EC20 acetylcholine; for EC50: concentration-dependent increase in the EC20 acetylcholine response
Text: Chinese hamster ovary (CHO-K1) cells stably expressing rat (r)M1 were purchased from the American Type Culture Collection and cultured according to their indicated protocol. CHO cells stably expressing human (h)M2, hM3, and hM5 were described previously (Levey, et al., 1991); hM1 and hM4 cDNAs were purchased from Missouri S&T cDNA Resource; rM4 cDNA was provided by T. I. Bonner (National Institutes of Health, Bethesda, Md.). rM2 and rM3 were cloned from a rat brain cDNA library and sequence verified. hM1, rM2, rM3, hM4, and rM4 cDNAs were used to stably transfect CHO-K1 cells purchased from the American Type Culture Collection using Lipofectamine 2000. To make stable rM2, hM2, rM3, hM4, and rM4 cell lines for use in calcium mobilization assays, these cells also were stably transfected with a chimeric G-protein (Gqi5) (provided by B. R. Conklin, University of California, San Francisco) using Lipofectamine 2000. rM1, hM1, rM3, hM3, rM5, and hM5 cells were grown in Ham's F-12 medium containing 10% heat-inactivated fetal bovine serum (FBS), 20 mM HEPES, and 50 µg/mL G418 sulfate. rM2-Gqi5, hM2-Gqi5, and hM4-Gqi5 cells were grown in the same medium also containing 500 μg/mL Hygromycin B. Stable rM4-Gqi5 cells were grown in DMEM containing 10% heat-inactivated FBS, 20 mM HEPES, 400 μg/mL G418 sulfate, and 500 μg/mL Hygromycin B.
For high throughput measurement of agonist-evoked increases in intracellular calcium, CHO-K1 cells stably expressing muscarinic receptors were plated in growth medium lacking G418 and hygromycin at 15,000 cells/20 μL/well in Greiner 384-well black-walled, tissue culture (TC)-treated, clear-bottom plates (VWR). Cells were incubated overnight at 37° C. and 5% CO2. The next day, cells were washed using an ELX 405 (BioTek) with four washes ([…]) of assay buffer then aspirated to 20 μL. Next, 20 μL of 16 μM Fluo-4/acetoxymethyl ester (Invitrogen, Carlsbad, Calif.) prepared as a 2.3 mM stock in DMSO and mixed in a 1:1 ratio with 10% (w/v) Pluronic F-127 and diluted in assay buffer was added to the wells and the cell plates were incubated for 50 min at 37° C. and 5% CO2. Dye was removed by washing with the ELX 405 (four 80 μL washes of assay buffer) then aspirated to 20 μL. Compound master plates were formatted in an 11 point CRC format (1:3 dilutions) in 100% DMSO with a starting concentration of 10 mM using the BRAVO liquid handler (Agilent). Test compound CRCs were then transferred to daughter plates (240 nL) using the Echo acoustic plate reformatter (Labcyte, Sunnyvale, Calif.) and then diluted into assay buffer (40 μL) to a 2× stock using a Thermo Fisher Combi (Thermo Fisher Scientific, Waltham, Mass.).
Calcium flux was measured using the Functional Drug Screening System (FDSS) 6000 (Hamamatsu Corporation, Tokyo, Japan) as an increase in the fluorescent static ratio. Compounds were applied to cells (20 μL, 2×) using the automated system of the FDSS 6000 at 4 s into the 300 s protocol and the data were collected at 1 Hz. At 144 s into the 300s protocol, 10 μL of an EC20 concentration of the muscarinic receptor agonist acetylcholine was added (5×), followed by the addition of 12 μL an EC80 concentration of acetylcholine at the 230 s time point (5×). Agonist activity was analyzed as a concentration-dependent increase in calcium mobilization upon compound addition. Positive allosteric modulator activity was analyzed as a concentration-dependent increase in the EC20 acetylcholine response. Antagonist activity was analyzed as a concentration-dependent decrease in the EC80 acetylcholine response. Concentration-response curves were generated using a four-parameter logistical equation in XLfit curve fitting software (IDBS, Bridgewater, N.J.) for Excel (Microsoft, Redmond, Wash.) or Prism (GraphPad Software, Inc., San Diego, Calif.).
Activity (EC50 and Emax) was determined in the mAChR M1 cell-based functional assay as described above and the data are shown in Table 2. […]

Structure (SMILES) | Emax [%] | EC50 [nM]
CCCn1ccc2c1C(=O)N(Cc1c(F)cc(-c3cccc4nn(C)cc34)cc1F)C2 [Compound 10, 5-(2,6-difluoro-4-(2-methyl-2H-indazol-4-yl)benzyl)-1-propyl-4,5-dihydropyrrolo[3,4-b]pyrrol-6(1H)-one] | 59 | –
O=C1c2ccsc2CN1Cc1ccc(-c2cscn2)cc1 [Compound 47, 5-(4-(thiazol-4-yl)benzyl)-5,6-dihydro-4H-thieno[2,3-c]pyrrol-4-one] | 30 | –
Cn1cc2c(-c3cc(F)c(CN4Cc5cn[nH]c5C4=O)c(F)c3)cccc2n1 [Compound 6.2, 5-(2,6-difluoro-4-(2-methyl-2H-indazol-4-yl)benzyl)-4,5-dihydropyrrolo[3,4-c]pyrazol-6(1H)-one] | 87 | –
Cn1cc2cc(-c3cc(F)c(CN4Cc5ncsc5C4=O)c(F)c3)ccc2n1 [Compound 22, 5-(2,6-difluoro-4-(2-methyl-2H-indazol-5-yl)benzyl)-4,5-dihydro-6H-pyrrolo[3,4-d]thiazol-6-one] | 28 | 370
Cc1n[nH]c2ccc(-c3cc(F)c(CN4Cc5sccc5C4=O)c(F)c3)cc12 [Compound 28, 5-(2,6-difluoro-4-(3-methyl-1H-indazol-5-yl)benzyl)-5,6-dihydro-4H-thieno[2,3-c]pyrrol-4-one] | 57 | –
COc1ccc(Cn2ncc3c2C(=O)N(Cc2c(F)cc(-c4cccc5nn(C)cc45)cc2F)C3)cc1 [Compound 6.1, 5-(2,6-difluoro-4-(2-methyl-2H-indazol-4-yl)benzyl)-1-(4-methoxybenzyl)-4,5-dihydropyrrolo[3,4-c]pyrazol-6(1H)-one] | 45 | 4370
O=C1c2ccsc2CN1Cc1ccc(-c2ccc3nccn3c2)cc1F [Compound 45, 5-(2-fluoro-4-(imidazo[1,2-a]pyridin-6-yl)benzyl)-5,6-dihydro-4H-thieno[2,3-c]pyrrol-4-one] | 50 | 4460
Cn1cc2c(-c3ccc(CN4Cc5sccc5C4=O)c(F)c3)cccc2n1 [Compound 40, 5-(2-fluoro-4-(2-methyl-2H-indazol-4-yl)benzyl)-5,6-dihydro-4H-thieno[2,3-c]pyrrol-4-one] | 67 | 3970
Cn1cc(-c2ccc(CN3Cc4ccsc4C3=O)c(F)c2)cn1 [Compound 32, 5-(2-fluoro-4-(1-methyl-1H-pyrazol-4-yl)benzyl)-4,5-dihydro-6H-thieno[2,3-c]pyrrol-6-one] | 67 | 4900
Cn1cc2cc(-c3cc(F)c(CN4Cc5scc(Br)c5C4=O)c(F)c3)ccc2n1 [Compound 33, 3-bromo-5-(2,6-difluoro-4-(2-methyl-2H-indazol-5-yl)benzyl)-5,6-dihydro-4H-thieno[2,3-c]pyrrol-4-one] | 56 | 2230
Cc1nn(C)cc1-c1cc(F)c(CN2Cc3occc3C2=O)c(F)c1 [Compound 59, 5-(4-(1,3-dimethyl-1H-pyrazol-4-yl)-2,6-difluorobenzyl)-5,6-dihydro-4H-furo[2,3-c]pyrrol-4-one] | 90 | –
Cn1cc2c(-c3cc(F)c(CN4Cc5occc5C4=O)c(F)c3)cccc2n1 [Compound 56, 5-(2,6-difluoro-4-(2-methyl-2H-indazol-4-yl)benzyl)-5,6-dihydro-4H-furo[2,3-c]pyrrol-4-one] | 80 | 3600
Cn1cc2c(-c3cc(F)c(CN4Cc5cn(Cc6ccccn6)nc5C4=O)c(F)c3)cccc2n1 [Compound 7, 5-(2,6-difluoro-4-(2-methyl-2H-indazol-4-yl)benzyl)-2-(pyridin-2-ylmethyl)-4,5-dihydropyrrolo[3,4-c]pyrazol-6(2H)-one] | 46 | –
Cc1cc(-c2cc(F)c(CN3Cc4cnn(CC5CCCO5)c4C3=O)c(F)c2)ccn1 (stereo not drawn) [Compound 39, 5-(2,6-difluoro-4-(2-methylpyridin-4-yl)benzyl)-1-((tetrahydrofuran-2-yl)methyl)-4,5-dihydropyrrolo[3,4-c]pyrazol-6(1H)-one] | 65 | 3580
Cn1cc2c(-c3cc(F)c(CN4Cc5cnn(CCN6CCCC6)c5C4=O)c(F)c3)cccc2n1 [Compound 20, 5-(2,6-difluoro-4-(2-methyl-2H-indazol-4-yl)benzyl)-1-(2-(pyrrolidin-1-yl)ethyl)-4,5-dihydropyrrolo[3,4-c]pyrazol-6(1H)-one] | 91 | 730
Cn1cc(-c2ccc(CN3Cc4sccc4C3=O)cc2)nn1 [Compound 48, 5-(4-(1-methyl-1H-1,2,3-triazol-4-yl)benzyl)-5,6-dihydro-4H-thieno[2,3-c]pyrrol-4-one] | 33 | –
Cn1cc2c(-c3cc(F)c(CN4Cc5ccn(CCN6CCCC6)c5C4=O)c(F)c3)cccc2n1 [Compound 11, 5-(2,6-difluoro-4-(2-methyl-2H-indazol-4-yl)benzyl)-1-(2-(pyrrolidin-1-yl)ethyl)-4,5-dihydropyrrolo[3,4-b]pyrrol-6(1H)-one] | 57 | 2920
Cn1cnc2ccc(-c3cc(F)c(CN4Cc5sccc5C4=O)c(F)c3)cc21 [Compound 27, 5-(2,6-difluoro-4-(1-methyl-1H-benzo[d]imidazol-6-yl)benzyl)-5,6-dihydro-4H-thieno[2,3-c]pyrrol-4-one] | 60 | 2870
Cn1cc2c(-c3cc(F)c(CN4Cc5ccsc5C4=O)c(F)c3)cccc2n1 [Compound 2, 5-(2,6-difluoro-4-(2-methyl-2H-indazol-4-yl)benzyl)-4,5-dihydro-6H-thieno[2,3-c]pyrrol-6-one] | 70 | 1260
O=C1c2c(ccn2CC2CCCO2)CN1Cc1c(F)cc(-c2ccc3nccn3c2)cc1F (stereo not drawn) [Compound 52, 5-(2,6-difluoro-4-(imidazo[1,2-a]pyridin-6-yl)benzyl)-1-((tetrahydrofuran-2-yl)methyl)-4,5-dihydropyrrolo[3,4-b]pyrrol-6(1H)-one] | 33 | 2150
Cn1cc(-c2cc(F)c(CN3Cc4occc4C3=O)c(F)c2)cn1 [Compound 58, 5-(2,6-difluoro-4-(1-methyl-1H-pyrazol-4-yl)benzyl)-5,6-dihydro-4H-furo[2,3-c]pyrrol-4-one] | 78 | –
Cn1cc2cc(-c3cc(F)c(CN4Cc5cnn(CC6CCCO6)c5C4=O)c(F)c3)ccc2n1 (stereo not drawn) [Compound 36, 5-(2,6-difluoro-4-(2-methyl-2H-indazol-5-yl)benzyl)-1-((tetrahydrofuran-2-yl)methyl)-4,5-dihydropyrrolo[3,4-c]pyrazol-6(1H)-one] | 82 | 1480
